Reference: patent US20110262490A1, “POLYMER-AGENT CONJUGATES, PARTICLES, COMPOSITIONS, AND RELATED METHODS OF USE” (priority 2009, published 2011)

How the values were obtained:
[1] = system: B16.F10 tumor; assay: In vivo efficacy in B16.F10 mouse model of melanoma (Example 39)
Protocol: The treatments were administered on days 5, 8, and 12 (biweekly×3 injections) post tumor implantation. Health status of the animals was monitored and tumor size was measured three times a week. […] Tumors from each animal were dissected and tumor size was measured. Tumor volume was calculated using the formula: (width×width×length)/2 mm^3.

[2] = system: B16.F10 cells; assay: CellTiter-Glo Luminescent Cell Viability Assay (cytotoxicity); assay type: cell-based, mouse; conditions: 24, 48 and 72 hours
Protocol: B16.F10 cells, grown to 85-90% confluency in 150 cm^2 flasks (passage <30), were resuspended in media (MEM-alpha, 10% HI-FBS, 1× antibiotic-antimycotic) and added to 96-well opaque-clear bottom plates at a concentration of 1500 cells/well in 200 μL/well. The cells were incubated at 37° C. with 5% CO2 for 24 hours. The following day, serial dilutions of 2× concentrated particles and 2× concentrated free drug were made in 12-well reservoirs with media to specified concentrations. The media in the plates was replaced with 100 μL of fresh media and 100 μL of the corresponding serially diluted drug. Three sets of plates were prepared with duplicate treatments. Following 24, 48 and 72 hours of incubation at 37° C. with 5% CO2, the media in the plates was replaced with 100 μL of fresh media and 100 μL of CTG solution, and then incubated for 5 minutes on a plate shaker at room temperature set to 450 rpm and allowed to rest for 15 minutes. Viable cells were measured by luminescence using a microtiter plate reader. The data was plotted as % viability vs. concentration and standardized to untreated cells.

For `CC(=O)O[C@H]1C(=O)[C@@]2(C)[C@H]([C@H](OC(=O)c3ccccc3)[C@]3(O)C[C@H](OC(=O)[C@H](O)[C@@H](NC(=O)c4ccccc4)c4ccccc4)C(C)=C1C3(C)C)[C@]1(OC(C)=O)CO[C@@H]1C[C@@H]2O` [Free paclitaxel, paclitaxel], the “Day-17 TGI” value ([1]; 6 mg/kg IV days 5, 8, 12) was 57%, the “Day-17 TGI” value ([1]; 6 mg/kg IV days 5, 8, 12, listed as free paclitaxel) was 57% and the “Day-17 TGI” value ([1]; 15 mg/kg IV days 5, 8, 12) was 83%. The “Day-17 TGI” value ([1]; 15 mg/kg IV days 5, 8, 12, listed as free paclitaxel) was 83%.
“Bis(Docetaxel) Glutamate-5050 PLGA-O-Acetyl [Example 9]” was tested, and the “Growth inhibition of B16.F10 cells” value [2] was “inhibited the growth of B16.F10 cells in a dose and time dependent manner”.
“Docetaxel-5050 PLGA-O-Acetyl [Example 8]” was tested, and the “Growth inhibition of B16.F10 cells” value [2] was “inhibited the growth of B16.F10 cells in a dose and time dependent manner”.
Doxorubicin 5050 PLGA Amide [Example 5] was tested, and the “Growth inhibition of B16.F10 cells” value [2] was “inhibited the growth of B16.F10 cells in a dose and time dependent manner”.
With “Paclitaxel-5050 PLGA-O-Acetyl [Example 7]” the “Growth inhibition of B16.F10 cells” value [2] was “inhibited the growth of B16.F10 cells in a dose and time dependent manner”.
